# Like-named read-outs stand apart in the source and are kept apart here.
# Tested on: AMPA receptors
# Test: Excitatory fluxes induced by AMPA in Xenopus oocytes (2-electrode voltage-clamp)
# Type: cell-based
# Details: Xenopus oocytes injected with rat cerebral cortex poly-(A+) mRNA, AMPA 10 μM, 20 to 24° C., OR2 medium
# Experimental: Study of the Excitatory Fluxes Induced By AMPA in Xenopus oocytes
# mRNAs are prepared from cerebral cortex of male Wistar rat by the guanidinium thiocyanate/phenol/chloroform method. The poly-(A^+) mRNAs are isolated by chromatography on oligo-dT cellulose and injected in an amount of 50 ng per oocyte. The oocytes are left to incubate for 2 to 3 days at 18° C. to allow expression of the receptors and are then stored at from 8 to 10° C.
# Electrophysiological recording is carried out in a Plexiglass® chamber at from 20 to 24° C. in OR2 medium (J. Exp. Zool., 1973, 184, 321-334) by the 2-electrode “voltage-clamp” method, a 3rd electrode being placed in the bath to serve as reference.
# All the compounds are administered via the incubation medium and the electric current is measured at the end of the period of administration. AMPA is used at a concentration of 10 μM. For each compound studied, the concentration that doubles (EC2X) or quintuples (EC5X) the intensity of the current induced by AMPA alone (5 to 50 nA) is determined.
smiles,measurement,setting,value
"O=C(Oc1ccc2c(c1)S(=O)(=O)NCC2)c1ccccc1 [Example 2, 1,1-Dioxido-3,4-dihydro-2H-1,2-benzothiazin-7-yl Benzoate]",Concentration that doubles (EC2X) or quintuples (EC5X) the AMPA-induced current,read-out: EC2X (concentration that doubles the intensity of the current induced by AMPA alone),11.9 µM
same,Concentration that doubles (EC2X) or quintuples (EC5X) the AMPA-induced current,read-out: EC5X (concentration that quintuples the intensity of the current induced by AMPA alone),49.3 µM

# — patent publication US20050014744A1, “Benzothiazine and benzothiadiazine compounds” (priority 2001, published 2005)
